{"source": "paper PMC8486872", "about": "“A rational blueprint for the design of chemically-controlled protein switches” (Nature Communications, 2021)", "tested_on": "SEAP and Luciferase expression in HEK293T cells", "assay": "SIMO designer cells (AIR-1/2-GEMS + CDH-1/2-TF)", "assay_type": "cell-based", "set-up": "Bottom (best-fit value) / Top (best-fit value) / Span (best-fit value): unit not given here", "source_text": "Fig. 5 Orthogonal chemical switches enable implementation of multi-input multi-output control modes in mammalian cells. a Scheme of multi-inputs multi-outputs (MIMO) designer cells where two drugs control two different outputs. b, c Cells were co-transfected with AIR-1/2-GEMS and CDH-3-TF regulate SEAP and Luciferase expression, respectively. […] AIR-1/2-GEMS coupled with SEAP expression circuits were co-transfected with CDH-1/2-TF circuits which control the Luciferase production. Respective drug concentrations ranged from 0.001 nM to 1 µM. All values presented are mean ± s.d. of three replicates and curves were fitted by four-parameters nonlinear regression. b, c, e, f, h, i Source data are available in the source data file.\nFinally, we engineered SIMO cells (Fig. 5g) using two designed switches that produce ON and OFF responses upon exposure to the same drug. We transfected cells with combinations of AIR-GEMS and CDH-TFs which controlled the expression of the reporter proteins SEAP and Luciferase, respectively. […] Therefore, computational design expanded the repertoire of protein switches controlled by the same compounds that can be used to simultaneous turn ON and OFF synergistic outputs. […]\nAIR-1-GEMS coupled with SEAP expression circuits (i) and CDH-1-TF circuits which control the Luciferase production (j). j-k) Quantification of SEAP and Luciferase activities under Drug-2. AIR-2-GEMS coupled with SEAP expression circuits (k) and CDH-2-TF circuits which control the Luciferase production (l). b-k) Each data point represents the mean of n = 3 biological replicates, and the dose-dependent curve were fitted using four-parameter nonlinear regression.", "key": {"[1]": {"conditions": "Fig S13j, AIR-2-GEMS control SEAP expression only, Drug-2 3.16 nM"}, "[2]": {"conditions": "Fig S13j, AIR-2-GEMS control SEAP expression only, Drug-2 10 nM"}, "[3]": {"conditions": "Fig S13j, AIR-2-GEMS control SEAP expression only, Drug-2 100 nM"}, "[4]": {"conditions": "Fig S13j, AIR-2-GEMS control SEAP expression only, Drug-2 316 nM"}, "[5]": {"conditions": "Fig S13j, AIR-2-GEMS control SEAP expression only, Drug-2 1000 nM"}, "[6]": {"conditions": "sheet Figure5i, SEAP, four-parameter fit"}}, "note": "pIC50: −log10 of the molar value. Values joined by “and” are separate entries in the source; they are usually repeats but may differ in a detail not shown here. Identical values can stand only once.", "data": [{"compound": "CC1(C)CCC(CN2CCN(c3ccc(C(=O)NS(=O)(=O)c4ccc(NCC5CCOCC5)c([N+](=O)[O-])c4)c(Oc4cnc5[nH]ccc5c4)c3)CC2)=C(c2ccc(Cl)cc2)C1", "note": "[Drug-2, Venetoclax]", "values": [{"measurement": "SEAP and Luciferase outputs in SIMO cells", "setting": "0.001 nM to 1 µM", "value": "simultaneously activated SEAP production and suppressed the expression of Luciferase"}, {"measurement": "SEAP", "setting": "Fig5i, turn ON (title: via AIR-1-GEMS), 0.001 nM", "value": "11.0539 U/L and 12.4374 U/L and 11.7528 U/L"}, {"measurement": "SEAP", "setting": "Fig5i, turn ON (title: via AIR-1-GEMS), 0.005 nM", "value": "14.3953 U/L and 10.7601 U/L and 8.34 U/L"}, {"measurement": "SEAP", "setting": "Fig5i, turn ON (title: via AIR-1-GEMS), 0.05 nM", "value": "12.0377 U/L and 10.3343 U/L and 7.481 U/L"}, {"measurement": "SEAP", "setting": "Fig5i, turn ON (title: via AIR-1-GEMS), 0.5 nM", "value": "13.1482 U/L and 9.328 U/L and 7.802 U/L"}, {"measurement": "SEAP", "setting": "Fig5i, turn ON (title: via AIR-1-GEMS), 1 nM", "value": "16.8267 U/L and 13.7148 U/L and 13.9654 U/L"}, {"measurement": "SEAP", "setting": "Fig5i, turn ON (title: via AIR-1-GEMS), 5 nM", "value": "12.4083 U/L and 18.0777 U/L and 19.7017 U/L"}, {"measurement": "SEAP", "setting": "Fig5i, turn ON (title: via AIR-1-GEMS), 10 nM", "value": "32.3034 U/L and 32.696 U/L and 36.5671 U/L"}, {"measurement": "SEAP", "setting": "Fig5i, turn ON (title: via AIR-1-GEMS), 50 nM", "value": 48.8555, "unit": "U/L"}, {"measurement": "SEAP", "setting": "Fig5i, turn ON (title: via AIR-1-GEMS), 100 nM", "value": "61.1746 U/L and 72.5404 U/L"}, {"measurement": "SEAP", "setting": "Fig5i, turn ON (title: via AIR-1-GEMS), 500 nM", "value": "94.0018 U/L and 86.0577 U/L"}, {"measurement": "SEAP", "setting": "Fig5i, turn ON (title: via AIR-1-GEMS), 1000 nM", "value": "105.374 U/L and 86.4725 U/L"}, {"measurement": "SEAP", "setting": "Fig S13j, AIR-2-GEMS control SEAP expression only, Drug-2 0.01 nM", "value": "269 U/L and 225 U/L and 167 U/L"}, {"measurement": "SEAP", "setting": "Fig S13j, AIR-2-GEMS control SEAP expression only, Drug-2 1 nM", "value": "225 U/L and 173 U/L and 167 U/L"}, {"measurement": "Luciferase", "setting": "[1]", "value": "18.3864 RLU and 14.0122 RLU and 11.0547 RLU"}, {"measurement": "SEAP", "setting": "[1]", "value": "199 U/L and 215 U/L and 123 U/L"}, {"measurement": "Luciferase", "setting": "[2]", "value": "59.3143 RLU and 64.1927 RLU and 53.9121 RLU"}, {"measurement": "SEAP", "setting": "[2]", "value": "143 U/L and 145 U/L and 125 U/L"}, {"measurement": "SEAP", "setting": "Fig S13j, AIR-2-GEMS control SEAP expression only, Drug-2 31.6 nM", "value": "149 U/L and 123 U/L"}, {"measurement": "Luciferase", "setting": "[3]", "value": "277.707 RLU and 262.611 RLU and 223.323 RLU"}, {"measurement": "SEAP", "setting": "[3]", "value": "157 U/L and 127 U/L and 107 U/L"}, {"measurement": "Luciferase", "setting": "[4]", "value": "280.311 RLU and 280.175 RLU and 202.801 RLU"}, {"measurement": "SEAP", "setting": "[4]", "value": "177 U/L and 117 U/L and 123 U/L"}, {"measurement": "Luciferase", "setting": "[5]", "value": "203.844 RLU and 222.434 RLU and 194.549 RLU"}, {"measurement": "SEAP", "setting": "[5]", "value": "191 U/L and 169 U/L and 179 U/L"}, {"measurement": "SEAP", "setting": "Fig S13k, CDH-2-TF control Luciferase expression only, Drug-2 0.01 nM", "value": "77283 U/L and 94282 U/L and 94549 U/L"}, {"measurement": "SEAP", "setting": "Fig S13k, CDH-2-TF control Luciferase expression only, Drug-2 0.1 nM", "value": "83949 U/L and 102019 U/L and 91551 U/L"}, {"measurement": "SEAP", "setting": "Fig S13k, CDH-2-TF control Luciferase expression only, Drug-2 1 nM", "value": "97527 U/L and 93132 U/L and 98408 U/L"}, {"measurement": "SEAP", "setting": "Fig S13k, CDH-2-TF control Luciferase expression only, Drug-2 3.16 nM", "value": "96858 U/L and 87221 U/L and 87443 U/L"}, {"measurement": "SEAP", "setting": "Fig S13k, CDH-2-TF control Luciferase expression only, Drug-2 10 nM", "value": "78643 U/L and 87229 U/L and 90599 U/L"}, {"measurement": "SEAP", "setting": "Fig S13k, CDH-2-TF control Luciferase expression only, Drug-2 31.6 nM", "value": "80585 U/L and 86321 U/L and 73406 U/L"}, {"measurement": "SEAP", "setting": "Fig S13k, CDH-2-TF control Luciferase expression only, Drug-2 100 nM", "value": "64234 U/L and 74136 U/L and 75517 U/L"}, {"measurement": "SEAP", "setting": "Fig S13k, CDH-2-TF control Luciferase expression only, Drug-2 316 nM", "value": "47807 U/L and 51555 U/L and 52806 U/L"}, {"measurement": "SEAP", "setting": "Fig S13k, CDH-2-TF control Luciferase expression only, Drug-2 1000 nM", "value": "34743 U/L and 30667 U/L and 26001 U/L"}, {"measurement": "pIC50", "setting": "Homo sapiens, HEK-293T, sheet Figure5i, SEAP column (turn ON), four-parameter fit, given as IC50, read-out: IC50 (best-fit value)", "value": 8.28}, {"measurement": "Bottom (best-fit value)", "setting": "[6]", "value": 28.34}, {"measurement": "HillSlope (best-fit value)", "setting": "[6]", "value": 1.403}, {"measurement": "Span (best-fit value)", "setting": "[6]", "value": 390.7}, {"measurement": "Top (best-fit value)", "setting": "[6]", "value": 419}, {"measurement": "logIC50 (best-fit value)", "setting": "sheet Figure5i, SEAP, four-parameter fit, drug in nM", "value": 0.7193}]}]}
